Experimental data taken from patent US20110097274A1, “Carbon-11 and fluorine-18 labeled radioligands for positron emission tomography (PET) imaging for the brain serotonin transporters” (priority 2002, published 2011).
Several values for one entry are separate records, joined by “and”; a condition that tells them apart may be missing. Equal entries are not always repeated. Where two headings read alike, the source gives them in different places.

Assays:
[1] = Baboon PET imaging: brain uptake, kinetic analysis and SERT parameters; type: in vivo; settings: male, baboon, intravenous, baboons
In short: (§1)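 Two isoflurane-anaesthetised adult male baboons, each radioligand tested twice (test-retest); i.v. bolus, 91 min 3D emission scan with arterial sampling, MRI-defined regions. Brain uptake as % ID g^−1, with peak time and washout; VT from one-tissue compartment model (K1/k2) using arterial plasma input.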

SERT = assay: as above; type: in vivo; settings: for Kp: male, baboon, brain, intravenous
In short: as §1

[2] = BP = VT ROI − VT CER, baboons, mean ± SD of four experiments
[3] = Mean ± SD of four experiments in two baboons
[4] = baboons, mean ± SD of four experiments
[5] = last scan 90 minutes, baboons, mean ± SD of four experiments
[6] = one-tissue compartment model, baboons, mean ± SD of four experiments

Question: Which fraction unbound ([1]; brain nonspecific distribution volume (cerebellum), calculated from f1 and cerebellar VT, read-out: f2 (free fraction in the nonspecific distribution volume)) does the source give for `CN(C)Cc1ccccc1Sc1ccc(C#N)cc1N` [[^11C]DASB] here?
Answer: 0.0077 ± 0.0008

Question: And the Kp ([1]; brain regions (average of all regions), read-out: VT, average of all regions and all animals)?
Answer: 29.2 ± 11.5

Question: What about the Kp ([1]; cerebellum, one-tissue compartment model, mean ± SD of four experiments, read-out: VT Cerebellum (VT CER, nonspecific distribution volume)) of the same compound?
Answer: 17.3 ± 0.5

Question: And the “Binding potential Cingulate Cortex” value (SERT; [2])?
Answer: 3.8 ± 0.8 mL/g

Question: What about the “Binding potential Hippocampus” value (SERT; [2]) of the same compound?
Answer: 10.0 ± 1.3 mL/g

Question: And the “Binding potential Midbrain” value (SERT; [2])?
Answer: 29.1 ± 4.0 mL/g

Question: What about the “Binding potential Occipital Cortex” value (SERT; [2]) of the same compound?
Answer: 2.0 ± 1.1 mL/g

Question: What about the “Binding potential Striatum” value (SERT; [2]) of the same compound?
Answer: 14.4 ± 1.5 mL/g

Question: What about the “Binding potential Temporal Cortex” value (SERT; [2]) of the same compound?
Answer: 5.1 ± 1.9 mL/g

Question: What about the “Binding potential Thalamus” value (SERT; [2]) of the same compound?
Answer: 30.2 ± 4.9 mL/g

Question: What about the “Equilibrium specific to non-specific partition coefficient (V3″) Cingulate Cortex” value (SERT; Baboon A, single experiment) of the same compound?
Answer: 0.26 and 0.25

Question: What about the “Equilibrium specific to non-specific partition coefficient (V3″) Hippocampus” value (SERT; Baboon A, single experiment) of the same compound?
Answer: 0.48 and 0.65

Question: And the “Equilibrium specific to non-specific partition coefficient (V3″) Midbrain” value (SERT; Baboon A, single experiment)?
Answer: 1.46 and 1.66

Question: And the “Equilibrium specific to non-specific partition coefficient (V3″) Occipital Cortex” value (SERT; Baboon A, single experiment)?
Answer: 0.15 and 0.18

Question: What about the “Equilibrium specific to non-specific partition coefficient (V3″) Striatum” value (SERT; Baboon A, single experiment) of the same compound?
Answer: 0.72 and 0.89

Question: What about the “Equilibrium specific to non-specific partition coefficient (V3″) Temporal Cortex” value (SERT; Baboon A, single experiment) of the same compound?
Answer: 0.34 and 0.42

Question: And the “Equilibrium specific to non-specific partition coefficient (V3″) Thalamus” value (SERT; Baboon A, single experiment)?
Answer: 1.42 and 1.68

Question: What about the “Equilibrium specific to non-specific partition coefficient (V3″) Cingulate Cortex” value (SERT; Baboon B, single experiment) of the same compound?
Answer: 0.21 and 0.16

Question: And the “Equilibrium specific to non-specific partition coefficient (V3″) Hippocampus” value (SERT; Baboon B, single experiment)?
Answer: 0.62 and 0.54

Question: And the “Equilibrium specific to non-specific partition coefficient (V3″) Midbrain” value (SERT; Baboon B, single experiment)?
Answer: 1.64 and 1.96

Question: What about the “Equilibrium specific to non-specific partition coefficient (V3″) Striatum” value (SERT; Baboon B, single experiment) of the same compound?
Answer: 0.83 and 0.87

Question: What about the “Equilibrium specific to non-specific partition coefficient (V3″) Temporal Cortex” value (SERT; Baboon B, single experiment) of the same compound?
Answer: 0.21

Question: And the “Equilibrium specific to non-specific partition coefficient (V3″) Thalamus” value (SERT; Baboon B, single experiment)?
Answer: 1.79 and 2.07

Question: What about the “Equilibrium specific to non-specific partition coefficient (V3″) Cingulate Cortex” value (SERT; [3]) of the same compound?
Answer: 0.22 ± 0.04

Question: And the “Equilibrium specific to non-specific partition coefficient (V3″) Hippocampus” value (SERT; [3])?
Answer: 0.58 ± 0.08

Question: What about the “Equilibrium specific to non-specific partition coefficient (V3″) Midbrain” value (SERT; [3]) of the same compound?
Answer: 1.68 ± 0.21

Question: What about the “Equilibrium specific to non-specific partition coefficient (V3″) Occipital Cortex” value (SERT; [3]) of the same compound?
Answer: 0.11±0.06

Question: And the “Equilibrium specific to non-specific partition coefficient (V3″) Striatum” value (SERT; [3])?
Answer: 0.83 ± 0.08

Question: What about the “Equilibrium specific to non-specific partition coefficient (V3″) Temporal Cortex” value (SERT; [3]) of the same compound?
Answer: 0.29 ± 0.10

Question: What about the “Equilibrium specific to non-specific partition coefficient (V3″) Thalamus” value (SERT; [3]) of the same compound?
Answer: 1.74 ± 0.27

Question: What about the “K1, average of all regions and all animals” value (SERT; baboons) of the same compound?
Answer: 1.21 ± 0.22 mL/g/min

Question: And the “k2, average of all regions and all animals” value (SERT; baboons)?
Answer: 0.047 ± 0.018 min⁻¹

Question: What about the “V3″ expressed in percentage of [^11C]McN 5652 V3″” value (SERT; baboons, combining all regions) of the same compound?
Answer: 142±29%

Question: What about the “Mean regional peak uptake time” value (SERT; baboons, mean of all regions) of the same compound?
Answer: 19 ± 9 min

Question: What about the “Mean regional wash-out (% decrease between peak time and last scan)” value (SERT; baboons, mean of all regions) of the same compound?
Answer: 52±19%

Question: What about the “Regional uptake peak time Cerebellum” value (SERT; [4]) of the same compound?
Answer: 12 ± 5 min

Question: What about the “Regional uptake peak time Cingulate Cortex” value (SERT; [4]) of the same compound?
Answer: 14 ± 3 min

Question: What about the “Regional uptake peak time Hippocampus” value (SERT; [4]) of the same compound?
Answer: 22 ± 10 min

Question: And the “Regional uptake peak time Midbrain” value (SERT; [4])?
Answer: 27 ± 13 min

Question: And the “Regional uptake peak time Occipital Cortex” value (SERT; [4])?
Answer: 16 ± 4 min

Question: And the “Regional uptake peak time Striatum” value (SERT; [4])?
Answer: 22 ± 10 min

Question: What about the “Regional uptake peak time Temporal Cortex” value (SERT; [4]) of the same compound?
Answer: 19 ± 5 min

Question: And the “Regional uptake peak time Thalamus” value (SERT; [4])?
Answer: 24 ± 10 min

Question: What about the “Total brain uptake at 45 min” value (SERT; baboons, region encompassing the entire brain) of the same compound?
Answer: 0.013±0.002 % ID g^−1

Question: What about the “Regional activity wash-out: % decrease from peak to last scan, Cerebellum” value (SERT; [5]) of the same compound?
Answer: 68 ± 14%

Question: What about the “Regional activity wash-out: % decrease from peak to last scan, Cingulate Cortex” value (SERT; [5]) of the same compound?
Answer: 64 ± 10%

Question: And the “Regional activity wash-out: % decrease from peak to last scan, Hippocampus” value (SERT; [5])?
Answer: 46 ± 19%

Question: What about the “Regional activity wash-out: % decrease from peak to last scan, Midbrain” value (SERT; [5]) of the same compound?
Answer: 32 ± 19%

Question: And the “Regional activity wash-out: % decrease from peak to last scan, Occipital Cortex” value (SERT; [5])?
Answer: 65 ± 11%

Question: What about the “Regional activity wash-out: % decrease from peak to last scan, Striatum” value (SERT; [5]) of the same compound?
Answer: 49 ± 18%

Question: What about the “Regional activity wash-out: % decrease from peak to last scan, Temporal Cortex” value (SERT; [5]) of the same compound?
Answer: 58 ± 13%

Question: And the “Regional activity wash-out: % decrease from peak to last scan, Thalamus” value (SERT; [5])?
Answer: 36 ± 16%

Question: What about the Kp (SERT; cingulate cortex, one-tissue compartment model, baboons, mean ± SD of four experiments, read-out: VT Cingulate Cortex) of the same compound?
Answer: 21.1 ± 0.9

Question: What about the Kp (SERT; hippocampus, one-tissue compartment model, baboons, mean ± SD of four experiments, read-out: VT Hippocampus) of the same compound?
Answer: 27.3 ± 1.4

Question: What about the Kp (SERT; midbrain, one-tissue compartment model, baboons, mean ± SD of four experiments, read-out: VT Midbrain) of the same compound?
Answer: 46.4 ± 4.3

Question: What about the Kp (SERT; occipital cortex, one-tissue compartment model, baboons, mean ± SD of four experiments, read-out: VT Occipital Cortex) of the same compound?
Answer: 19.3 ± 1.5

Question: And the Kp (SERT; striatum, one-tissue compartment model, baboons, mean ± SD of four experiments, read-out: VT Striatum)?
Answer: 31.7 ± 1.7

Question: And the Kp (SERT; temporal cortex, one-tissue compartment model, baboons, mean ± SD of four experiments, read-out: VT Temporal Cortex)?
Answer: 22.5 ± 2.1

Question: And the Kp (SERT; thalamus, one-tissue compartment model, baboons, mean ± SD of four experiments, read-out: VT Thalamus)?
Answer: 47.5 ± 5

Question: What about the “K1 Cerebellum” value (SERT; [6]) of the same compound?
Answer: 1.36 ± 0.24 mL/g/min

Question: And the “K1 Cingulate Cortex” value (SERT; [6])?
Answer: 1.26 ± 0.09 mL/g/min

Question: And the “K1 Hippocampus” value (SERT; [6])?
Answer: 0.98 ± 0.20 mL/g/min

Question: What about the “K1 Midbrain” value (SERT; [6]) of the same compound?
Answer: 1.23 ± 0.20 mL/g/min

Question: What about the “K1 Occipital Cortex” value (SERT; [6]) of the same compound?
Answer: 1.15 ± 0.24 mL/g/min

Question: And the “K1 Striatum” value (SERT; [6])?
Answer: 1.27 ± 0.21 mL/g/min

Question: And the “K1 Temporal Cortex” value (SERT; [6])?
Answer: 1.05 ± 0.09 mL/g/min

Question: What about the “K1 Thalamus” value (SERT; [6]) of the same compound?
Answer: 1.35 ± 0.29 mL/g/min

Question: And the “K2 Cerebellum” value (SERT; [6])?
Answer: 0.078 ± 0.013 min⁻¹

Question: What about the “K2 Cingulate Cortex” value (SERT; [6]) of the same compound?
Answer: 0.060 ± 0.004 min⁻¹

Question: And the “K2 Hippocampus” value (SERT; [6])?
Answer: 0.036 ± 0.006 min⁻¹

Question: What about the “K2 Midbrain” value (SERT; [6]) of the same compound?
Answer: 0.027 ± 0.005 min⁻¹

Question: What about the “K2 Occipital Cortex” value (SERT; [6]) of the same compound?
Answer: 0.059 ± 0.011 min⁻¹

Question: What about the “K2 Striatum” value (SERT; [6]) of the same compound?
Answer: 0.040 ± 0.007 min⁻¹

Question: And the “K2 Temporal Cortex” value (SERT; [6])?
Answer: 0.047 ± 0.004 min⁻¹

Question: What about the “K2 Thalamus” value (SERT; [6]) of the same compound?
Answer: 0.028 ± 0.006 min⁻¹

Question: And the “VT Cerebellum (VT CER, nonspecific distribution volume)” value (SERT; [6])?
Answer: 17.3 ± 0.5 mL/g
